Entries after “also recorded” stand apart in the source; their conditions may differ.

This is an account of results in patent US7338932B2, “Methods of modulating functions of polypeptide GalNAc-transferases and of screening test substances to find agents herefor, pharmaceutical compositions comprising such agents and the use of such agents for preparing medicaments” (Glycozym APS, priority 2000, dated 2008).

For experiment [1], the system named is CHOldlD/MUC1F-clone2 cells. Nature of the experiment: MUC1 expression in cell lysates, immunoprecipitation and SDS-PAGE western blot. It counts as cell-based, Chinese Hamster. The following applies: 2 mM, 36 hours. As for the experimental part:
We next analysed the expression of MUC1 produced by CHOldlD/MUC1F-clone2 cells by SDS-PAGE western analysis. […] Cells were further treated with 2 mM GalNAcα-benzyl, GlcNAcα-benzyl or no inhibitor. Cells were washed and lysed at 24 or 48 hours and the lysates subjected to immunoprecipitation with monoclonal antibody HMFG2, which broadly recognize MUC1 glycoforms. Immunoprecipitates were analysed by SDS-PAGE and western blot using HMFG2 antibody to detect MUC1 expression. […] In striking contrast, treatment with GalNAcα-benzyl had significant effect after 48 hours. […] This indicates some heterogeneity in glycosylation.
As shown in Examples 8 and 9, polypeptide GalNAc-transferases contain lectin domains with binding properties for GalNAc-peptides including GalNAc-MUC1 peptides. […] GalNAcβ-benzyl, the β-anomeric configuration of GalNAc-benzyl (there is a β linkage between the N-acetylgalactosamine and the benzyl ring), was custom synthesized by Alberta Research Council (Canada), and its structure was confirmed by mass spectrometry and ^1H-NMR. […] Cells were then treated with 2 mM GalNAcα-benzyl, GalNAcβ-benzyl, or GlcNAcα-benzyl as control (GlcNAcα-benzyl was shown in Example 10 to have no effect). Cells were washed and lysed as described above after 36 hours and the lysates subjected to immunoprecipitation with anti-MUC1 monoclonal antibodies HMFG2 or 5E5. […] FIG. 17 illustrates the same experiments as in FIG. 16 except that the detection antibody is 5E5 and only Tn and STn MUC1 glycoforms are visualised.

The test system of experiment [2] is wild type CHO/MUC1sol-cloneC4. The experiment in a line: Secretion of MUC1, western blot of medium. Format: cell-based, Chinese Hamster. The following applies: 1-2 mM; compared to control treated or non-treated cells. How it is done:
In order to characterize the secreted MUC1 product SDS-PAGE western blot analysis of harvested culture medium of confluent cultures were performed. Ten to twenty μL culture supernatant was analysed directly or treated with 0.1 U/mL neuraminidase (C. Perfringes VI, Sigma) for 30-60 min at 37° C. Samples were mixed with SDS sample buffer, reduced with DTT, and run on precast 4-20% gels (Biorad). As shown in FIG. 9 anti-MUC1 antibodies detected two forms of MUC1 in the medium; a low molecular weight form migrating as 130-140 kd corresponding to unglycosylated product, and a high molecular weight form migrating above 250 kd. The high molecular weight form was sensitive to neuraminidase treatment as evidenced by a marked shift and retardation in migration. […]
Because GalNAcα-benzyl exerts separate effects on O-glycan processing and mucin expression, the use of the novel selective inhibitor of mucin expression, GalNAcβ-benzyl, allow analysis of mucin expression and secretion in different cell line models. […] Most human adenocarcinoma cell lines express and secret mucins and analysis with antibodies to detect protein expression or probes to detect mRNA can reveal the types and quantities of mucins. […] The inhibitory effect on mucin secretion can be quantified by a number of assays known to the skilled in the art including western blot, ELISA, gelfiltration, immunocapture, and other assays.
On the technique in general: A western blot detects proteins with antibodies after separation by electrophoresis.

For a further experiment, the target named is T1, GalNAc-T7 (Homo sapiens, UniProt Q86SF2).
T1 construct: made in house; host or cells: High Five insect cells (baculovirus)
T1 sequence (Q86SF2 30-657 limits assumed): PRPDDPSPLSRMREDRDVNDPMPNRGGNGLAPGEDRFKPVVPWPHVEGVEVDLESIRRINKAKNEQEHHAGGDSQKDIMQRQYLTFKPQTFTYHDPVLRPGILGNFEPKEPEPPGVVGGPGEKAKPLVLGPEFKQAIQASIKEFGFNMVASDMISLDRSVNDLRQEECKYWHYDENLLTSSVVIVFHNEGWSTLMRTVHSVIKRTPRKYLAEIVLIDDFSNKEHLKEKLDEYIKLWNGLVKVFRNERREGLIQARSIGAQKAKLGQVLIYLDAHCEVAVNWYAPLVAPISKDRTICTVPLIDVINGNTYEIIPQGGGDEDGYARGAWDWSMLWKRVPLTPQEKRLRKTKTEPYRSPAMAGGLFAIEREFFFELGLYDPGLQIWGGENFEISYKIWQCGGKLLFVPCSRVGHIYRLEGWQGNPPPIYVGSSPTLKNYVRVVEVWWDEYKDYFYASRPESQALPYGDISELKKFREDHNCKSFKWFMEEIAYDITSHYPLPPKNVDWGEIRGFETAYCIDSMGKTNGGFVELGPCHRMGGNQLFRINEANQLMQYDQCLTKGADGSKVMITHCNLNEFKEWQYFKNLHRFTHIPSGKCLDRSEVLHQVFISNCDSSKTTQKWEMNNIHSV
The experiment in a line: Inhibition of GalNAc-T7 activity with GalNAc2-3EA2 substrate. Format: biochemical. The following applies: 5 mM. How it is done:
(§1) Standard reaction mixtures (50 μl final volume) contained 25 mM cocadylate (pH 7.4), 10 mM MnCl2, 0.25% Triton X-100, 200 μM UDP-[^14C]-GalNAc (2,000 cpm/nmol) (Amersham), 200-500 μM acceptor peptides. Products were quantified by scintillation counting after chromatography on Dowex-1, octadecyl silica cartridges (Bakerbond), or HPLC (PC3.2/3 or mRPC C2/C18 SC2.1/10 Pharmacia, Smart System). […] Glycopeptides were purified on Supelclean LC-18 columns (1 ml, Supelco), and the number of GalNAc residues incorporated evaluated by MALDI-TOF mass spectrometry. The enzyme sources used were semipurified as previously described by successive sequential ion-exchange chromatographies on Amberlite (IRA95, Sigma) or DEAE Sephacel (Pharmacia), S-Sepharose Fast Flow (Pharmacia), and Mini-S™ (PC 3.2/3, Pharmacia) using the Smart System (Pharmacia) (28). Secreted GalNAc-T4 was obtained from a stably transfected CHO line (CHO/GalNA-T4/21A) (8) grown in roller bottles in HAMS F12 supplemented with 10% Fetal Bovine Serum. The experiments illustrated in FIG. 1 was performed with recombinant secreted GalNAc-T4 obtained from a stably transfected CHO line (8). Experiments illustrated in FIGS. 2 and 3 were performed with secreted GalNAc-T4 expressed in High Five cells grown in serum-free medium (8). Structural analysis of glycopeptides were performed by a combination of PFPA (pentafluoropropionic acid) hydrolysis and MALDI-TOF mass spectrometry as previously described (40). Secreted GalNAc-T7 was obtained from infected High Five™ cells grown in serum-free medium (Invitrogen) in upright roller bottles shaken 140 rpm in waterbaths at 27° C. GalNAc-T7 was not purified by Mini-S as the yields from cationic chromatography were low due to its low pI (6.4).
GalNAc-T7 activity was analysed with GalNAc glycosylated glycopeptides (represented by GalNAc2-3EA2 (7)) in reactions of 25 μl containing 2.5 nmol acceptor (glyco)peptide, 40 nmol UDP-GalNAc, and purified GalNAc-T7. […]

In another experiment the target is T2, GalNAc-T3 (Homo sapiens, UniProt Q14435).
T2 construct: Soluble, secreted expression constructs of human GalNAc-transferases GalNAc-T1, -T2, -T3, -T4, -T6, -T7, and -T11; made in house; host or cells: insect cells (baculovirus)
T2 sequence (Q14435 38-633 limits assumed): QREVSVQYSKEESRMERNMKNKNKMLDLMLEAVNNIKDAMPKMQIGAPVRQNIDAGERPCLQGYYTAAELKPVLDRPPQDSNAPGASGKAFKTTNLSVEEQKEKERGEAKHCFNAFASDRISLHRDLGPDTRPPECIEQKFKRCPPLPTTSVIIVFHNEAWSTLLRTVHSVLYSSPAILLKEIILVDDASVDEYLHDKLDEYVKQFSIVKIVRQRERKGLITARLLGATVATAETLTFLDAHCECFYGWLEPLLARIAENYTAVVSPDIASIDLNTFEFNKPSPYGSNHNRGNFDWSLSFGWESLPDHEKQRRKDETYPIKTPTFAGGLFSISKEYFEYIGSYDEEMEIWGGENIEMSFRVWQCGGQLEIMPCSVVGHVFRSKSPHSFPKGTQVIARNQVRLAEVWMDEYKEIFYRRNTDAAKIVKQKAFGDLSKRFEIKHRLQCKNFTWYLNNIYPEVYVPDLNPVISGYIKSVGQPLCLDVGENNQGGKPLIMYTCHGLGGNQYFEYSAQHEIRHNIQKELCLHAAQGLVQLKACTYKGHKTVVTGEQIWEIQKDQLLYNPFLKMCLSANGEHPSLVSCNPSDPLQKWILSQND
Nature of the experiment: GalNAc-T3 transferase activities with UDP-GalNAc or UDP-Gal donor (EA2 acceptor, peptide panel). Format: biochemical. The following applies: peptide as acceptor substrate. As for the experimental part: as §1
(§2) Galactosyl transferring activities of GalNAc-T1, -T2, and -T3, were assayed with a panel of acceptor peptides in standard reaction mixtures containing 100 μM UDP-Gal instead of UDP-GalNAc. […] Further, analysis was performed with 10 mM α-D-GalNAc-1-benzyl, αGlcNAc-benzyl, and fully occupied GalNAc-glycopeptide, GalNAC6TAP25, at 5 mM.

A further experiment deals with T3, GalNAc-T2 (Homo sapiens, UniProt Q10471).
T3 construct: Soluble, secreted expression constructs of human GalNAc-transferases GalNAc-T1, -T2, -T3, -T4, -T6, -T7, and -T11; made in house; host or cells: insect cells (baculovirus)
T3 sequence (Q10471 52-571 limits assumed): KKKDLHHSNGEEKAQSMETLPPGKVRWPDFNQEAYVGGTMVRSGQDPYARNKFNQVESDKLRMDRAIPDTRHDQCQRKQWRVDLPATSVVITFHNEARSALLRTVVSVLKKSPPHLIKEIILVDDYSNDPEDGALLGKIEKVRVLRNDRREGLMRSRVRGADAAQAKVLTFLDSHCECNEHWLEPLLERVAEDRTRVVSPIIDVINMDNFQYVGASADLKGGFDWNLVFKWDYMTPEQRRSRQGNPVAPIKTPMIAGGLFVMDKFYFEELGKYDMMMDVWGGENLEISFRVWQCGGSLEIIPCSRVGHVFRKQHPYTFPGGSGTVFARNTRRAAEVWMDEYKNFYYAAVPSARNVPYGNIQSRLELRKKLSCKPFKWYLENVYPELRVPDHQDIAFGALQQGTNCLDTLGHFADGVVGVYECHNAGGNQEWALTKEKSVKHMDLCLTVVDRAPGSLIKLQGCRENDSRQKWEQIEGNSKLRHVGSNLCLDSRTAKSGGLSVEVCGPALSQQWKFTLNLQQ
Nature of the experiment: GalNAc-T2 transferase activities with UDP-GalNAc or UDP-Gal donor (Muc2 acceptor, peptide panel). It counts as biochemical. The following applies: peptide as acceptor substrate. As for the experimental part:
as §1, §2

With `CC(=O)N[C@H]1[C@H](OCc2ccccc2)O[C@H](CO)[C@H](O)[C@@H]1O` [GalNAcβ-benzyl, benzyl-2-acetamido-2-deoxy-β-D-galactopyranoside galactosamine], the MUC1 expression result in experiment [1] (blot 5E5, cells grown in GalNAc) is “strong inhibition; also recorded: same or better reduction in MUC1 expression”; in experiment [1] (blot HMFG2, grown in GalNAc or Gal and GalNAc), “same or better reduction in MUC1 expression”. The “SDS-PAGE migration of MUC1 (O-glycosylation)” value in experiment [1] (cells grown in Gal and GalNAc) was “no change in the migration of MUC1”. Also, in experiment [2], the “Secreted MUC1 in medium” value is given as “inhibition of secreted MUC1”.

For `CC(=O)N[C@H]1[C@@H](OCc2ccccc2)O[C@H](CO)[C@H](O)[C@@H]1O[C@@H]1O[C@H](CO)[C@H](O)[C@H](O)[C@H]1O` [Galβ1-3GalNAcα1-bz], the “Inhibition of GalNAc-T7 activity with GalNAc2-3EA2” value at GalNAc-T7 is reported as “significantly inhibited”.

For “Muc2: acceptor peptide PTTTPISTTTMVTPTPTPTC derived from human intestinal mucin MUC2”, the “GalNAc-T3 activity with UDP-Gal by acceptor peptide” value with GalNAc-T3 was found to be 0 nmol/min/mL. Also, in the experiment with GalNAc-T2, the “GalNAc-T2 activity with UDP-Gal by acceptor peptide” value worked out at 90 nmol/min/mL.

As to “EA2: acceptor peptide PTTDSTTPAPTTK derived from rat submandibular gland mucin”, the “GalNAc-T3 activity with UDP-Gal by acceptor peptide” value with GalNAc-T3 is 6.8 nmol/min/mL. Moreover, the “GalNAc-T2 activity with UDP-Gal by acceptor peptide” value with GalNAc-T2 is 1.5 nmol/min/mL.

Regarding `OC[C@H]1O[C@@H](OCc2ccccc2)[C@H](O)[C@@H](O)[C@H]1O` [bz-βGal], on GalNAc-T7, the “Inhibition of GalNAc-T7 activity with GalNAc2-3EA2” value is on record as “significantly inhibited”.
